Read-outs that look alike come from different tables or passages of the source.
Tests used:
[1] = test system: PC12 cells, or rat sympathetic neurons; conditions: cited from earlier work; for concentration giving maximal protection from death: camptothecin-treated, minimum concentrations that fully inhibit DNA synthesis by proliferating PC12 cells; for cell death: day 6, in the presence or absence of camptothecin
[2] = test system: neuronal PC12 cells and sympathetic neurons; conditions: two model systems of neuronal survival; Park et al. 1996; cited from earlier work
[3] = test system: cortical neurons; conditions: cited from earlier work; for IC50: Park et al. 1997, read-out: IC50, protection against camptothecin-induced cortical neuronal death
[4] = test system: cAMP- and cGMP-dependent kinases, and protein kinase C; conditions: cited from earlier work
[5] = test system: A549; assay: In vitro tumor cell proliferation, A549; format: cell-based, human; conditions: Homo sapiens; A549; many values given with an undefined *; read-out: In vitro Tumor Cell Proliferation (IC50, μM) Lung A549
Method in brief: (§1)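 Cells seeded overnight at 37° C, then exposed to drug diluted in medium; at 3 days medium and drug replenished for another 4 days. Growth read by sulforhodamine B staining after TCA fixation; alternatively by CyQUANT, with plates frozen at −80° C after 3 days of drug.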

[6] = test system: HCT-15; assay: In vitro tumor cell proliferation, HCT-15; format: cell-based, human; conditions: read-out: In vitro Tumor Cell Proliferation (IC50, μM) Colon HCT-15
Description: (§2) The proliferation of tumor cells was measured using a sulforhodamine B assay as described in Skehan, P., et al., J. Natl. Cancer Inst. […] Tumor cells were harvested with trypsin-EDTA, cells that excluded trypan blue were counted, added to 96-well plates and incubated overnight at 37° C. Drug was added to the wells following dilution in culture medium. Three days later, the medium was removed and replenished with medium containing fresh drug and incubated an additional 4 days. The cells were then fixed with 0.1 ml 10% trichloroacetic acid for 60 min at 4° C. The plates were rinsed five times with tap water, air-dried and stained for 30 min with 0.4% sulforhodamine B in 1% acetic acid and air-dried.
(§3) Alternatively, the CyQUANT cell proliferation assay was used to quantitate cell proliferation.
(§4) Alternatively, the CyQUANT cell proliferation assay was used to quantify tumor cell proliferation. Tumor cells were harvested with trypsin-EDTA, cells that excluded trypan blue were counted, added to 96-well plates and incubated overnight at 37° C. Drug was added to the wells following dilution in culture medium. Three days later the medium was removed and the plates frozen at −80° C. for at least 30 minutes.

[7] = test system: DMS-114; assay: In vitro tumor cell proliferation, DMS-114; format: cell-based, human; conditions: many values given with an undefined *, read-out: In vitro Tumor Cell Proliferation (IC50, μM) Lung DMS-114
Method in brief: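 Human small cell lung carcinoma DMS-114 cells plated overnight, then drug-treated for 3 days, medium and drug renewed, and incubated 4 more days. Growth read by sulforhodamine B staining after TCA fixation; alternatively by CyQUANT after 3 days' drug exposure and freezing at −80 °C.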

[8] = test system: CDK-cyclin protein kinases; conditions: Vesely et al. 1994; cited from earlier work
[9] = test system: PC-3; assay: In vitro tumor cell proliferation, PC-3; format: cell-based, human; conditions: Homo sapiens; PC-3; many values given with an undefined *; read-out: In vitro Tumor Cell Proliferation (IC50, μM) Prostate PC-3
Method in brief: as §1

[10] = test system: HT-29; assay: In vitro tumor cell proliferation, HT-29; format: cell-based, human; conditions: many values given with an undefined *, read-out: In vitro Tumor Cell Proliferation (IC50, μM) Colon HT-29
Method in brief: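 Growth was quantified either with CyQUANT, plates frozen at −80° C after 3 days of drug, or by sulforhodamine B staining of TCA-fixed cells after 3 days of drug plus 4 days with fresh drug. Trypan blue-excluding HT-29 cells were plated overnight at 37° C before dosing.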

[11] = test system: MCF-7; assay: In vitro tumor cell proliferation, MCF-7; format: cell-based, human; conditions: Homo sapiens, MCF7, MCF-7; sulforhodamine B or CyQUANT assay; read-out: In vitro Tumor Cell Proliferation (IC50, μM) Breast MCF-7
Description: as §2, §3, §4
MCF7 is a human breast adenocarcinoma, hormone-dependent (HTB 22);

[12] = test system: DU145; assay: In vitro tumor cell proliferation, DU145; format: cell-based, human; conditions: Homo sapiens, DU-145, DU145; many values given with an undefined *; read-out: In vitro Tumor Cell Proliferation (IC50, μM) Prostate DU145
Method in brief: as §1

Row | SMILES | concentration giving maximal protection from death [1] [µM] | cell death [1] | effect on death of neuronal PC12 cells and sympathetic neurons [2] | IC50 [3] [µM] | effect on other major protein kinases [4] | IC50 [5] [µM] | IC50 ([6]; HCT-15) [µM] | IC50 ([6]; Homo sapiens, HCT-15, HCT-15) [µM] | IC50 ([7]; DMS-114) [µM] | IC50 ([7]; Homo sapiens, DMS-114, DMS-114) [µM] | IC50 [8] [µM] | IC50 [9] [µM] | IC50 ([10]; HT-29) [µM] | IC50 ([10]; Homo sapiens, HT-29, HT-29) [µM] | IC50 [11] [µM] | IC50 [12] [µM] | prevention of cell death of camptothecin-treated neuronal cells ([1]; PC12 cells / sympathetic neurons) | prevention of cell death of camptothecin-treated neuronal cells ([3]; cortical neurons)
1 | CN1CC[C@H](c2c(O)cc(O)c3c(=O)cc(-c4ccccc4Cl)oc23)[C@H](O)C1 [Flavopiridol] | 1 | approximately 30% | suppress the death | 0.1 | – | – | – | – | – | – | – | – | – | – | – | – | – | –
2 | Cn1cnc2c(NCc3ccccc3)nc(NCCO)nc21 [Olomoucine, 6-(benzylamino)-2-[(2-hydroxyethyl)amino]-9-methylpurine, reference compound] | 200 | approximately 30% | suppress the death | 100 | no effect | 69 | 63 | 62 | 76 | 50 | ~7 | 55 | 58 | 53 | 35 | > 100 | – | –
3 | Cn1cnc2nc(NCCO)nc(NCc3ccccc3)c21 [iso-olomoucine] | – | – | – | – | – | – | – | – | – | – | – | – | – | – | – | – | failed to prevent the cell death | failed to prevent the cell death
